Measured values published in patent US4205067A, “Antibiotics” (priority 1974, dated 1980).
Structures can show the parent of a compound that is named as a salt.

Columns and labels:
E. coli B11 = test: MIC, serial dilution in nutrient agar, synergism with ampicillin; assay type: cell-based; conditions: alone
E. coli JT39 = test: as above; assay type: cell-based; conditions: alone
Proteus mirabilis 889 = test: as above; assay type: cell-based; conditions: alone
Proteus mirabilis 247 = test: as above; assay type: cell-based; conditions: alone
Proteus rettgeri R110 = test: as above; assay type: cell-based; conditions: alone
Staph. aureus (Russell) = test: as above; assay type: cell-based; conditions: alone
[1] = tested on: Staph. aureus (Russell H); test: as above; assay type: cell-based; conditions: alone
[2] = tested on: β-lactamase of Escherichia coli B11; test: I50 determination: inhibition of hydrolysis of ampicillin by E. coli B11 β-lactamase (starch-iodometric assay); assay type: biochemical; conditions: MM 4550A
Source text: This β-lactamase is classified as a type IIIa enzyme according to the classification of Richmond and Sykes [Adv. in Microbiol.Physiol. 9 31 (1973)]
The rate of β-lactamase hydrolysis of ampicillin to its penicilloic acid can be followed by a starch-iodometric assay in which one measures the rate of formation of penicilloic acid by following the decolorization of a starch-iodine complex. This method and the preparation of the β-lactamase are described in a paper by Cole M., Elson S., and Fullbrook P.D. (Biochemical Journal 1972, 127, 295-308). […] The procedure was as follows:
Buffer: 0.05M pH7 potassium phosphate buffer
Prepared from E. coli B11 as described by Cole
Enzyme: et al, Biochem. J. (1972) 127, 295. The dilution
of the enzyme preparation in buffer was such as
to give a fall of about 0.3 optical density
units per 100 secs. in the uninhibited reaction.
The reactions were carried out in 1 cm cuvettes at 37° C. in an SP 800 Pye Unicam spectrophotometer. This instrument can carry four sample cuvettes and their corresponding blanks. The first cuvette was used for the control reaction and contained no inhibitor. The 2nd, 3rd and 4th cuvettes were used for various dilutions of the inhibitor.
Inhibitor of buffer 0.1 ml 0.1 ml
Substrate (added after incubation […]

[3] = target: Escherichia coli β-lactamase (Escherichia coli, UniProt P62593); test: β-lactamase inhibition (qualitative); assay type: biochemical
Sequence of Escherichia coli β-lactamase (P62593 24-286 limits assumed): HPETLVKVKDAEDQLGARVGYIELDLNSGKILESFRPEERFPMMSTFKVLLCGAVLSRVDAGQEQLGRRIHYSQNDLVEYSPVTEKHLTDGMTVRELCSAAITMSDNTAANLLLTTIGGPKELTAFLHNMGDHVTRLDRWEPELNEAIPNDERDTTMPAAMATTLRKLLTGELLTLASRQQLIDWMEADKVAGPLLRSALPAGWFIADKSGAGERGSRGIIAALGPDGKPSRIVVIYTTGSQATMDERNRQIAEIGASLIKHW
Source text: In a further experiment, the two substances were separated on a cellulose thin layer developed with isopropanol:water (8:2) and extracted from the cellulose with phosphate buffer.

[4] = tested on: β-lactamases produced by Klebsiella aerogenes; test: β-lactamase inhibition (qualitative); assay type: biochemical
[5] = target: β-lactamases produced by Staphylococcus aureus (Staphylococcus aureus, UniProt P00807); test: β-lactamase inhibition (qualitative); assay type: biochemical
Sequence of β-lactamases produced by Staphylococcus aureus (P00807 25-281): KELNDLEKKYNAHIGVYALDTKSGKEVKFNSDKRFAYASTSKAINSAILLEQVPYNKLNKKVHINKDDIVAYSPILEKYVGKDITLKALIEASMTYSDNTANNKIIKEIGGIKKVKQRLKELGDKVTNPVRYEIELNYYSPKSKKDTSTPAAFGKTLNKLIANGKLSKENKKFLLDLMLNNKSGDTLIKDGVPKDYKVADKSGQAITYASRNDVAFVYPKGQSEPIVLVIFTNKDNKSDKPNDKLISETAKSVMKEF

[6] = tested on: various species including strains of Staphylococcus aureus, Bacillus subtilis, Escherichia coli, Klebsiella aerogenes, Proteus mirabilis; test: antibacterial activity (qualitative); assay type: cell-based, various bacterial species; conditions: sodium salt, inter alia S. aureus, B. subtilis, E. coli, K. aerogenes, P. mirabilis
[7] = tested on: Escherichia coli, Klebsiella aerogenes, Proteus mirabilis, Proteus morganii and Staphylococcus aureus Russell; test: synergy with ampicillin (qualitative); assay type: cell-based
[8] = tested on: B. subtilis, Staphylococcus aureus, Escherichia coli, Salmonella typhimurium, Proteus mirabilis, Proteus morganii and Klebsiella aerogenes; test: detection by bioautography after cellulose TLC (qualitative); assay type: cell-based, various bacterial species; conditions: n-butanol:isopropanol:water 7:7:6
Klebsiella aerogenes = test: bioautography zone diameter (cellulose TLC); assay type: cell-based; conditions: butanol/isopropyl alcohol/water 7:7:6
Proteus morganii = test: bioautography zone diameter (cellulose TLC); assay type: cell-based; conditions: butanol/isopropyl alcohol/water 7:7:6
Escherichia coli 10418 = test: bioautography zone diameter (cellulose TLC); assay type: cell-based; conditions: butanol/isopropyl alcohol/water 7:7:6
Enterobacter aerogenes = test: bioautography zone diameter (cellulose TLC); assay type: cell-based; conditions: butanol/isopropyl alcohol/water 7:7:6
[9] = tested on: Staphylococcus aureus (Oxford); test: bioautography zone diameter (cellulose TLC); assay type: cell-based; conditions: butanol/isopropyl alcohol/water 7:7:6
[10] = tested on: Staphylococcus aureus (Russell); test: bioautography zone diameter (cellulose TLC); assay type: cell-based; conditions: butanol/isopropyl alcohol/water 7:7:6
Bacillus subtilis = test: bioautography zone diameter (cellulose TLC); assay type: cell-based; conditions: butanol/isopropyl alcohol/water 7:7:6
solubility = conditions: sodium salt
[11] = specific activity relative to culture filtrate (arbitrary units)
Protocol: The material produced above was arbitrarily assigned an activity of 340 1/ml. Assays were determined as described in Description 3.

stability = assay type: physicochemical; conditions: monobasic salts and free acid

Compound: CC1(C)S[C@@H]2[C@H](NC(=O)[C@H](N)c3ccccc3)C(=O)N2[C@H]1C(=O)O [Ampicillin, ampicillin]
- minimum inhibitory concentration (E. coli B11): > 500
- minimum inhibitory concentration (E. coli JT39): > 500
- minimum inhibitory concentration (Proteus mirabilis 889): > 500
- minimum inhibitory concentration (Proteus mirabilis 247): > 500
- minimum inhibitory concentration (Proteus rettgeri R110): 250
- minimum inhibitory concentration (Staph. aureus (Russell)): 250
- minimum inhibitory concentration [1]: > 500

Compound: CC(=O)N/C=C/[S+]([O-])C1=C(C(=O)O)N2C(=O)C(C(C)OS(=O)(=O)O)C2C1 (stereo not shown) [MM 4550A]
- I50 [2]: less than 0.0001 μg/ml
- enzyme inhibitory activity against β-lactamase [3]: possesses enzyme inhibitory activity
- enzyme inhibitory activity against β-lactamase [4]: possesses enzyme inhibitory activity
- enzyme inhibitory activity against β-lactamase [5]: possesses enzyme inhibitory activity
- antibacterial activity against various species ([6]; Acinetobacter anitratus, Serratia, Shigella sonnei): possesses antibacterial activity
- synergy when mixed with ampicillin [7]: synergyses its activity
- detection by bioautography [8]: may be detected by bioautography on a variety of organisms
- Zone Diameter on Bioautography (Klebsiella aerogenes): 20.0 mm
- Zone Diameter on Bioautography (Proteus morganii): 16.0 mm
- Zone Diameter on Bioautography (Escherichia coli 10418): 20.0 mm
- Zone Diameter on Bioautography (Enterobacter aerogenes): 6.5 mm
- Zone Diameter on Bioautography [9]: 13.0 mm
- Zone Diameter on Bioautography [10]: 12.0 mm
- Zone Diameter on Bioautography (Bacillus subtilis): 24.0 mm
- solubility in chloroform, diethylether and hydrocarbons (solubility): substantially insoluble
- solubility in methanol (solubility): soluble
- solubility in water (solubility): highly soluble

Compound: CC(=O)N/C=C/SC1=C(C(=O)O)N2C(=O)C(C(C)OS(=O)(=O)O)C2C1 (stereo not shown) [MM 13902 di-sodium salt]
- activity ([11]; after cellulose chromatography, yellowish powder): 73,000 units/mg

Compound: CC(=O)N/C=C/SC1=C(C(=O)O)N2C(=O)C(C(C)OS(=O)(=O)O)C2C1 (stereo not shown) [MM 13902]
- antibacterial activity against various species ([6]; Salmonella typhi, Ps. aeruginosa): possessed antibacterial activity
- synergy when mixed with ampicillin [7]: synergizes its activity
- stability to isolation from mixtures such as MM 4550 (Complex) (stability): not sufficiently stable to isolate from mixtures
- activity ([11]; partially purified, after Amberlite XAD 4): 37,000 units/mg
- detection by bioautography [8]: may be detected by bioautography on a variety of organisms
- Zone Diameter on Bioautography (Enterobacter aerogenes): No Zone
- solubility in chloroform, diethylether and hydrocarbons (solubility): substantially insoluble
- solubility in methanol (solubility): soluble
- solubility in water (solubility): highly soluble
